Results taken from patent publication US10980778B2, “Methods for treating multiple osteochondroma (MO)” (Clementia Pharmaceuticals Inc., priority 2016, dated 2021).
Where two headings read alike, the source gives them in different places.

What was measured:
[1] = test system: Fsp1-Ext1CKO mice; assay: Dose response of palovarotene to inhibit OC formation (P14 and P21 cohorts); assay type: in vivo; details: for EC50 at AUC0-24 hr (percent decrease in total OCs at rib and limb bones): extrapolated exposure
Method: Nonclinical pharmacology data: Fsp1-Ext1CKO mice were administered three doses of palovarotene (0.269 mg/kg [low], 0.882 mg/kg [mid], or 1.764 mg/kg [high]) for 28 consecutive days starting treatment at Day 14 postpartum (P14 cohort), or for 21 consecutive days starting at Day 21 postpartum (P21 cohort).
To determine the dose exposure response, exposure in this study was extrapolated based on pharmacokinetic data obtained from adult wild-type (WT) mice with the assumption that pharmacokinetics in adult WT mice are similar to juvenile Fsp1-Ext 1CKO mice.

[2] = test system: Fsp1-Ext1CKO mice; assay: Crown-rump length in MO mouse model; assay type: in vivo
Method: Crown-rump length, defined as mouse body length from snout to base of the tail, was measured using a ruler in vehicle and palovarotene treated Fsp1-Ext1CKO mice and untreated wild-type (WT) littermates at baseline (Study Day 1) and, 3 and 4 weeks post initiation of palovarotene treatment (Study Day 21 and 28, respectively). As show in FIG. 3, palovarotene treatment had no effect on crown-rump length after 4 weeks of daily oral treatment in Fsp1-Ext1CKO mice compared to vehicle controls.

[3] = test system: Fsp1-Ext1^CKO mice; assay: Effect of palovarotene on osteochondroma (OC) formation, alcian blue whole-mount skeletal staining of rib bones; assay type: in vivo
Description: Biallelic conditional knock-out (CKO) of Ext1 using a Cre transgene driven by an Fsp1 promotor) (Fsp1-Ext1^CKO in mice leads to the formation of phenotypes characteristic of MO. Fsp1 expression in developing bone is restricted to the perichondrium and periosteum. Perichondrium-targeted Ext1 deletion in mice causes osteochondromatogenesis in long bones, vertebrae and ribs. Fsp1-Ext1^CKO mice appear normal at birth, present mild bone deformity by P (postnatal day) 28 and have normal life span. In these mice, bony protrusions consisting of bony tuberosities with a cartilage cap are first detectable after P14. These protrusions are consistent with the histological features of osteochondromas in human MO. By P28, all animals develop multiple osteochondromas that can be readily observed in whole-mount skeletal preparations. This phenotype supports the relevance of the Fsp1-Ext1^CKO mouse as a preclinical model of MO. It also mimics the findings observed in a previously developed mouse model of MO, the Col2a1-Ext1^CKO mice.
The therapeutic effect of palovarotene in MO was tested in the Fsp1-Ext1^CKO mouse model. The CKO mice were treated with palovarotene (1.05 mg/kg) or vehicle by oral gavage daily. Treatment was initiated on day 14 postpartum and continued daily for 4 weeks. The effect of palovarotene on the formation of osteochondromas (OCs) in the mouse model was evaluated using whole-mount skeletal preparation. At end of treatment, the mice were euthanized by CO2 inhalation and the carcasses were eviscerated and fixed in 95% ethanol overnight. The preparations were stained with alcian blue for 3 days, rinsed in 95% ethanol, and incubated in 2% KOH for 1-2 days. Stained preparations were cleaned in 20% glycerol/1% KOH for 14 days and transferred to 50% glycerol/50% ethanol for photography and storage. By examination under a dissecting microscope, an alcian blue-positive protrusion that was clearly distinguishable was considered as an OC. OCs were identified and counted in each of the 24 rib bones from each mouse.
The sum of these counts (total number of OCs at the rib bones) and the mean occurrence of response (number of rib bones showing no OCs vs. number of rib bones showing at least one OC) were reported for each treatment group.

[4] = Observed pharmacokinetic parameters, fixed and weight-based dosing regimen; assay type: in vivo, human; details: for AUC(0-t): human, in vivo, oral; for AUC Ratio (A/P) Mean (SD) / AUC Ratio (A/P) Median / AUC Ratio (A/P) Min / AUC Ratio (A/P) max: observed vs predicted
Method: Table 4 summarizes the pharmacokinetic parameters of mean and median AUC0-24 values for subjects receiving 2.5 mg and 5.0 mg equivalent doses of palovarotene. Skeletally mature subjects received fixed dose regimens, while the skeletally immature subjects <18 years old were dosed via weight adjusted equivalent doses.
One other parameter known to impact systemic exposure of palovarotene is food. For the clinical studies, all subjects are instructed to administer study medication at approximately the same time each day, and following a full meal, although the exact amount consumed is not recorded.

[5] = mean occurrence of 24 rib bones, 1.05 mg/kg daily × 28 days, p=0.0039 vs vehicle (Fisher's exact test)
[6] = PVO 2.5 mg Weight-Adjusted Equivalent
[7] = PVO 5 mg Weight-Adjusted Equivalent

**Q.** What does the source list for CC1(C)CCC(C)(C)c2cc(Cn3cccn3)c(/C=C/c3ccc(C(=O)O)cc3)cc21 [Palovarotene, 4-[(1E)-2-[5,6,7,8-Tetrahydro-5,5,8,8-tetramethyl-3-(1H-pyrazol-1-ylmethyl)-2-naphthalenyl]-ethenyl]-benzoic acid]?
**A.** Occurrence of OCs ([1]; 0.269, 0.882 or 1.764 mg/kg, 28 days from P14 or 21 days from P21, vs vehicle controls): inhibited the occurrence of OCs in a dose-dependent manner; Efficacy P14 cohort compared to P21 cohort ([1]; 28 days from P14 vs 21 days from P21): Greater efficacy was observed with earlier and longer dosing in the P14 cohort; EC50 at AUC0-24 hr (percent decrease in total OCs at rib and limb bones) ([1]; P14 cohort): 57 to 62 ng·h/mL; EC50 at AUC0-24 hr (percent decrease in total OCs at rib and limb bones) ([1]; P21 cohort): 125 to 173 ng·h/mL; Effect on crown-rump length ([2]; after 4 weeks of daily oral treatment, compared to vehicle controls): no effect; Long bone growth ([2]; summary of the Examples): able to maintain long bone growth; Normal bone growth in the animal ([2]; summary of the Examples): did not interfere with normal bone growth; Total number of OCs at the rib bones Mean (95% CI) ([3]; 1.05 mg/kg daily × 28 days, oral gavage from day 14 postpartum, n=9, vehicle 147.3): 28.33 (23.23-33.43); Effect on total number of OCs per rib bone and formation of OCs ([3]; 1.05 mg/kg daily, 4 weeks, vs vehicle): reduced the total number of OCs per rib bone and prevent the formation of OCs; Number of rib bones showing at least one OC [3, 5]: 16; Number of rib bones showing no OC [3, 5]: 8; Cartilage hyperplasia ([3]; summary of the Examples): reduced cartilage hyperplasia; Number and size of osteochondromas observed ([3]; summary of the Examples): reduced the number and size of osteochondromas observed; Observed exposures using weight based dosing compared with fixed dosing ([4]; 2.5 mg and 5.0 mg equivalent doses, few subjects in 2.5 mg group): tended to be lower than fixed dosing; AUC(0-t) ([4]; 2.5 mg, PVO 2.5 mg Fixed Dose, N=4, read-out: AUC0-24 h Mean (SD)): 176 ng·h/mL; AUC(0-t) ([4]; 2.5 mg, PVO 2.5 mg Fixed Dose, N=4, read-out: AUC0-24 h Median): 149 ng·h/mL; AUC(0-t) ([4]; 2.5 mg, PVO 2.5 mg Fixed Dose, N=4, read-out: AUC0-24 h Min): 107 ng·h/mL; AUC(0-t) ([4]; 2.5 mg, PVO 2.5 mg Fixed Dose, N=4, read-out: AUC0-24 h max): 31 ng·h/mL; AUC(0-t) ([4]; 2.5 mg, PVO 2.5 mg Weight-Adjusted Equivalent, N=3, read-out: AUC0-24 h Mean (SD)): 98 ng·h/mL; AUC(0-t) ([4]; 2.5 mg, PVO 2.5 mg Weight-Adjusted Equivalent, N=3, read-out: AUC0-24 h Median): 78 ng·h/mL; AUC(0-t) ([4]; 2.5 mg, PVO 2.5 mg Weight-Adjusted Equivalent, N=3, read-out: AUC0-24 h Min): 37 ng·h/mL; AUC(0-t) ([4]; 2.5 mg, PVO 2.5 mg Weight-Adjusted Equivalent, N=3, read-out: AUC0-24 h max): 179 ng·h/mL; AUC(0-t) ([4]; 5 mg, PVO 5 mg Fixed Dose, N=15, read-out: AUC0-24 h Mean (SD)): 347 ng·h/mL; AUC(0-t) ([4]; 5 mg, PVO 5 mg Fixed Dose, N=15, read-out: AUC0-24 h Median): 320 ng·h/mL; AUC(0-t) ([4]; 5 mg, PVO 5 mg Fixed Dose, N=15, read-out: AUC0-24 h Min): 144 ng·h/mL; AUC(0-t) ([4]; 5 mg, PVO 5 mg Fixed Dose, N=15, read-out: AUC0-24 h max): 667 ng·h/mL; AUC(0-t) ([4]; 5 mg, PVO 5 mg Weight-Adjusted Equivalent, N=6, read-out: AUC0-24 h Mean (SD)): 249 ng·h/mL; AUC(0-t) ([4]; 5 mg, PVO 5 mg Weight-Adjusted Equivalent, N=6, read-out: AUC0-24 h Median): 218 ng·h/mL; AUC(0-t) ([4]; 5 mg, PVO 5 mg Weight-Adjusted Equivalent, N=6, read-out: AUC0-24 h Min): 139 ng·h/mL; AUC(0-t) ([4]; 5 mg, PVO 5 mg Weight-Adjusted Equivalent, N=6, read-out: AUC0-24 h max): 363 ng·h/mL; AUC Ratio (A/P) Mean (SD) ([4]; PVO 2.5 mg Fixed Dose): 1.1 (0.7); AUC Ratio (A/P) Median ([4]; PVO 2.5 mg Fixed Dose): 0.9; AUC Ratio (A/P) Min ([4]; PVO 2.5 mg Fixed Dose): 0.6; AUC Ratio (A/P) max ([4]; PVO 2.5 mg Fixed Dose): 2.1; AUC Ratio (A/P) Mean (SD) [4, 6]: 0.8 (0.6); AUC Ratio (A/P) Median [4, 6]: 0.6; AUC Ratio (A/P) Min [4, 6]: 0.3; AUC Ratio (A/P) max [4, 6]: 1.4; AUC Ratio (A/P) Mean (SD) ([4]; PVO 5 mg Fixed Dose): 1.3 (0.7); AUC Ratio (A/P) Median ([4]; PVO 5 mg Fixed Dose): 1.1; AUC Ratio (A/P) Min ([4]; PVO 5 mg Fixed Dose): 0.6; AUC Ratio (A/P) max ([4]; PVO 5 mg Fixed Dose): 2.9; AUC Ratio (A/P) Mean (SD) [4, 7]: 1.0 (0.3); AUC Ratio (A/P) Median [4, 7]: 0.9; AUC Ratio (A/P) Min [4, 7]: 0.5; AUC Ratio (A/P) max [4, 7]: 1.4; AUCA/P ratio ([4]; overall, observed vs predicted exposures): ~1
